This passage reports Km results from article PMC9698702, “Efficient Preparation of High-Purity Fucoxanthinol by SpyTag-Tailored Active Cholesterol Esterase Aggregates” (Marine Drugs, 2022).

The test system of the assay is T1, free cholesterol esterase.
T1 construct: commercial Pseudomonas cholesterol esterase (Sigma-Aldrich), free
Put plainly: coupled cholesterol oxidase/peroxidase assay at […] nm, Lineweaver-Burk. The assay is classed as biochemical. The note with it: free enzyme; taurocholate, pH 7.0, 37 °C; substrate of the kinetic run not named, taken from the activity assay.

As to `CCCCCCCC/C=C\CCCCCCCC(=O)O[C@H]1CC[C@@]2(C)C(=CC[C@H]3[C@@H]4CC[C@H]([C@H](C)CCCC(C)C)[C@@]4(C)CC[C@@H]32)C1` [cholesteryl oleate], the Km (commonly the concentration of substrate that gives half-maximal velocity) turned out to be 48.8 µM.
